Test systems include OVCAR-4 ovarian; SF-268 CNS; NCI/ADR-RES ovarian; MCF7 breast; CAKI-1 renal; KM12 colon; SK-OV-3 ovarian; K-562 leukemia; HCT-116 colon; 786-0 renal; SW-620 colon; NCI-H226 lung; OVCAR-5 ovarian; HT29 colon; T-47D breast; SNB-19 CNS; IGROV1 ovarian.
What all share (experiment): NCI-60 cell line screen, 48 h

We go through seven compounds from PubChem BioAssay (NCI).

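Test compounds were applied to cells in 96-well plates for 48 hours at 5 doses. TGI: concentration producing complete growth inhibition.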

As to `N#Cc1c(-c2ccc(Cl)cc2)cc(-c2ccc(Nc3ccnc4cc(Cl)ccc34)cc2)[nH]c1=O`, the TGI with OVCAR-4 ovarian, in the assay with SF-268 CNS, in the assay on NCI/ADR-RES ovarian, with MCF7 breast, with CAKI-1 renal and in the assay with KM12 colon was greater than 100 µM each time. Moreover, the TGI with SK-OV-3 ovarian was greater than 79 µM; in the assay with K-562 leukemia, greater than 100 µM; with HCT-116 colon it was greater than 100 µM; in the assay on 786-0 renal it was greater than 100 µM; in the assay on SW-620 colon, greater than 100 µM; in the assay with NCI-H226 lung it was greater than 100 µM. Also, the TGI is greater than 100 µM with OVCAR-5 ovarian; greater than 100 µM with HT29 colon; greater than 100 µM with T-47D breast; greater than 96.7 µM in the assay with SNB-19 CNS; greater than 100 µM in the assay on IGROV1 ovarian.
On to `NS(=O)(=O)c1nc(S(=O)(=O)O)c2[nH]cnc2n1`, for which the TGI in the assay with OVCAR-4 ovarian, in the assay on SF-268 CNS, in the assay with NCI/ADR-RES ovarian, in the assay with MCF7 breast, with CAKI-1 renal and in the assay on KM12 colon was greater than 100 µM each time. In addition, the TGI in the assay on SK-OV-3 ovarian, in the assay with K-562 leukemia, in the assay with HCT-116 colon, in the assay with 786-0 renal, in the assay with SW-620 colon and in the assay with NCI-H226 lung was greater than 100 µM in each case. Further, the TGI with OVCAR-5 ovarian, in the assay on HT29 colon, in the assay on T-47D breast, in the assay on SNB-19 CNS and with IGROV1 ovarian was greater than 100 µM in each case.
Regarding `NCCCN(CCCCN(CCCN)C(=O)OCc1ccccc1)C(=O)OCc1ccccc1`, the TGI with OVCAR-4 ovarian is greater than 100 µM; with SF-268 CNS it was greater than 100 µM; in the assay with NCI/ADR-RES ovarian it was greater than 100 µM; in the assay on MCF7 breast, 77.7 µM; with CAKI-1 renal it was greater than 100 µM; in the assay with KM12 colon, greater than 100 µM. Also, the TGI in the assay with SK-OV-3 ovarian, in the assay with K-562 leukemia, in the assay with HCT-116 colon, in the assay with 786-0 renal, in the assay on SW-620 colon and with NCI-H226 lung was greater than 100 µM throughout. Moreover, the TGI with OVCAR-5 ovarian, in the assay on HT29 colon, in the assay with T-47D breast, with SNB-19 CNS and in the assay on IGROV1 ovarian was greater than 100 µM in each case.
For `CC(C)(C)OC(=O)[C@@H]1CCC(=O)N1C1(c2ccccc2)c2ccccc2-c2ccccc21`, the TGI with OVCAR-4 ovarian, in the assay with SF-268 CNS, in the assay on NCI/ADR-RES ovarian, in the assay with MCF7 breast, in the assay on CAKI-1 renal and with KM12 colon was greater than 100 µM throughout. Besides, the TGI in the assay with SK-OV-3 ovarian was greater than 100 µM; in the assay on K-562 leukemia, greater than 100 µM; with HCT-116 colon it was greater than 100 µM; in the assay with 786-0 renal, greater than 100 µM; in the assay on SW-620 colon, 87.1 µM; in the assay with NCI-H226 lung, greater than 100 µM. The TGI in the assay on OVCAR-5 ovarian was greater than 100 µM; in the assay on HT29 colon, 90.1 µM; in the assay on T-47D breast, greater than 100 µM; with SNB-19 CNS, greater than 100 µM; in the assay with IGROV1 ovarian, greater than 100 µM.
Take `CN1/C(=C/C=C/C=C/C=C2C(=O)c3ccccc3C2=O)C(C)(C)c2ccccc21`: the TGI in the assay with OVCAR-4 ovarian, with SF-268 CNS, in the assay on NCI/ADR-RES ovarian, in the assay with MCF7 breast, in the assay with CAKI-1 renal and with KM12 colon was greater than 100 µM in each case. In addition, the TGI in the assay with SK-OV-3 ovarian, in the assay with K-562 leukemia, in the assay with HCT-116 colon, in the assay with 786-0 renal, in the assay with SW-620 colon and in the assay with NCI-H226 lung was greater than 100 µM in each case. The TGI with OVCAR-5 ovarian, with HT29 colon, in the assay with T-47D breast, in the assay on SNB-19 CNS and with IGROV1 ovarian was greater than 100 µM in each case.
On to `O[C@@H]1C=C[C@]23CCN(Cc4cc5c(cc42)OCO5)[C@@H]3C1`, for which the TGI in the assay on OVCAR-4 ovarian, with SF-268 CNS, with NCI/ADR-RES ovarian, with MCF7 breast, in the assay on CAKI-1 renal and in the assay on KM12 colon was greater than 100 µM each time. For the same compound, the TGI in the assay with SK-OV-3 ovarian, with K-562 leukemia, with HCT-116 colon, in the assay with 786-0 renal, in the assay on SW-620 colon and in the assay with NCI-H226 lung was greater than 100 µM each time. Besides, the TGI in the assay on OVCAR-5 ovarian, in the assay on HT29 colon, in the assay with T-47D breast, in the assay on SNB-19 CNS and in the assay with IGROV1 ovarian was greater than 100 µM in each case.
On to `COC(=O)C1CC2(C)C=CC1N(C(=O)OCc1ccccc1)C2` (centres undefined), for which the TGI in the assay on OVCAR-4 ovarian, in the assay with SF-268 CNS, in the assay with NCI/ADR-RES ovarian, in the assay on MCF7 breast, with CAKI-1 renal and with KM12 colon was greater than 100 µM each time. Moreover, the TGI in the assay on SK-OV-3 ovarian, with K-562 leukemia, in the assay with HCT-116 colon, in the assay on 786-0 renal, with SW-620 colon and in the assay with NCI-H226 lung was greater than 100 µM in each case. The TGI with OVCAR-5 ovarian, in the assay with HT29 colon, with T-47D breast, with SNB-19 CNS and in the assay on IGROV1 ovarian was greater than 100 µM in each case.
